Results from patent US20250276993A1, “PSEUDO-DISACCHARIDE COMPOUNDS” (UNIVERSITEIT LEIDEN, priority 2022, published 2025).

What was measured:
HPSE [1] = target: T1, HPSE (Homo sapiens, UniProt Q9Y251); assay: cABPP Assay 1, recombinant HPSE; assay type: biochemical; conditions: 1 h preincubation at 37° C., pH 5.5, 100 nM ABP 7
T1 sequence (Q9Y251 36-109 limits assumed): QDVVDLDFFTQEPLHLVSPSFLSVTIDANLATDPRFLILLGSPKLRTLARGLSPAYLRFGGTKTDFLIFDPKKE
T1 sequence (Q9Y251 158-543 limits assumed): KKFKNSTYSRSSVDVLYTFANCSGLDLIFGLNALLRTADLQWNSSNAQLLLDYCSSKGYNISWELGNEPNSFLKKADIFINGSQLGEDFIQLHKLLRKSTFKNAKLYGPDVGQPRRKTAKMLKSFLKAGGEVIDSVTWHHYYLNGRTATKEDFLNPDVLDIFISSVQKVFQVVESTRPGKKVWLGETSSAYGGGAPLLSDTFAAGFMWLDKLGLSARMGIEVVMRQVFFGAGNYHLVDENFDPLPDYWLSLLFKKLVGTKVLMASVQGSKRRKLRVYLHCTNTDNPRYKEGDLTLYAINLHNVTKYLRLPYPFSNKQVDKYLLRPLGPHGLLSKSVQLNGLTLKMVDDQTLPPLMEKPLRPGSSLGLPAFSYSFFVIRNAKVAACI

HPSE (platelet) = target: T2, HPSE (platelet) (Homo sapiens, UniProt Q9Y251); assay: cABPP Assay 2, platelet lysates, HPSE; assay type: biochemical
T2 construct: endogenous in cells; host or cells: human platelet lysates
T2 sequence (Q9Y251 158-543 limits assumed): T1 sequence (Q9Y251 158-543 limits assumed)
T2 sequence (Q9Y251 36-109 limits assumed): T1 sequence (Q9Y251 36-109 limits assumed)
Experimental: (§1) For further competitive ABPP studies, a working protein mixture was prepared by mixing the platelet lysates (87.5 μL), buffer (pH 5.0, 150 mM, 157.5 μL) and 3 M NaCl solution (35 μL). The enzymatic reactions were carried out at a constant concentration of read-out 7 (100 nM, final). For each inhibitor 2, 12 and 13, triplicate sets of ten 0.5 mL low protein binding Eppendorf tubes were prepared. Working solutions of each inhibitor (1% DMSO (w/v), 5 μL) in a range of ten concentrations (100, 50, 25, 12.5, 6.3, 3.1, 1.6, 0.8, 0.4, 0 μM) were prepared with MilliQ water and kept on ice. The working protein mixture (8 μL) was added in each protein low binding 0.5 mL Eppendorf tube, and 1 μL of inhibitor solution was added while on ice.
(§2) Further cABPP studies were undertaken using platelet lysates to provide a more physiologically realistic environment. Platelet lysates contain complex mixtures of overlapping enzyme activities, including both endo- and exo-β-glucuronidases HPSE and GUSB respectively, thus provide a challenging environment to test inhibitor specificity.

[2] = test system: 4T1 mouse mammary carcinoma cells; assay: 4T1 breast cancer lung metastasis model; assay type: in vivo, Balb/c mice; conditions: 2: 300 nmol/mouse i.p.; SST0001: 150 μg/mouse i.p.; bioluminescence, 14 day timepoint
Experimental: 4T1 breast cancer—Twenty minutes before tumor cell inoculation, Balb/c mice (n=5) were injected intraperitoneally with vehicle alone (PBS), compound 2 (300 nmol/mouse), or SST0001 (150 μg/mouse). Mice were subsequently intravenously inoculated with 1.5×10^5 luciferase tagged 4T1 mouse mammary carcinoma cells/mouse in a volume of 100 μL, alongside 20 μM 2 or 10 μg SST0001.
Bioluminescence imaging of lung metastases produced by luciferase-expressing 4T1 cells was carried out using a highly sensitive, cooled charge-coupled device camera assembled in a specimen box (IVIS; Xenogen Corp, Hopkinton, MA). For this, the tumor-bearing mice were intraperitoneally administered with a luciferase substrate D-luciferin at a dose of 150 mg/kg body weight. The mice were anesthetized and kept in a camera box followed by continuous exposure to isoflurane (EZAnesthesia, Palmer, PA, USA). The tumor burden was quantified using Living Image software (Xenogen) (U. Barash et al., Journal of the National Cancer Institute 110, 1102-1114, 2018; M. Weissmann et al., Proc Natl Acad Sci, 113, 704-709, 2016)
The compounds of the invention were tested against a B16 murine melanoma experimental metastasis model, which measures the formation of metastatic lung tumors by B16 cancer cells after intravenous (i.v.) injection. […]

HPSE [3] = target: T1, HPSE; assay: Fondaparinux cleavage assay; assay type: biochemical
CAG human myeloma cells = assay: CAG myeloma metastasis model; assay type: in vivo, NOD/SCID mice
Experimental: CAG myeloma—Luciferase-labeled CAG human myeloma cells (3×10^6) were injected into the tail vein of NOD/SCID mice. 3-5 days after cell inoculation, mice were randomly assigned to 4 cohorts (6 mice each) receiving: (a) vehicle, (b) compound 2 (i.p. 300 nmol/day), (c) bortezomib (0.5 mg/kg twice weekly) or (d) 2 plus bortezomib (dosing as for individual compounds). Tumor development was inspected (every 7 days) by IVIS imaging as detailed above. Tumor burden was quantified using Living Image software. Plots and statistical analyses were carried out in Prism 9 (Graphpad software).

GUSB = target: T3, GUSB (Homo sapiens, UniProt P08236); assay: cABPP Assay 2, platelet lysates, GUSB; assay type: biochemical; conditions: preincubation with inhibitor
T3 construct: Platelet lysates contain complex mixtures of overlapping enzyme activities, including both endo- and exo-β-glucuronidases HPSE and GUSB; endogenous in cells; host or cells: human platelet lysates
T3 sequence (P08236 23-651): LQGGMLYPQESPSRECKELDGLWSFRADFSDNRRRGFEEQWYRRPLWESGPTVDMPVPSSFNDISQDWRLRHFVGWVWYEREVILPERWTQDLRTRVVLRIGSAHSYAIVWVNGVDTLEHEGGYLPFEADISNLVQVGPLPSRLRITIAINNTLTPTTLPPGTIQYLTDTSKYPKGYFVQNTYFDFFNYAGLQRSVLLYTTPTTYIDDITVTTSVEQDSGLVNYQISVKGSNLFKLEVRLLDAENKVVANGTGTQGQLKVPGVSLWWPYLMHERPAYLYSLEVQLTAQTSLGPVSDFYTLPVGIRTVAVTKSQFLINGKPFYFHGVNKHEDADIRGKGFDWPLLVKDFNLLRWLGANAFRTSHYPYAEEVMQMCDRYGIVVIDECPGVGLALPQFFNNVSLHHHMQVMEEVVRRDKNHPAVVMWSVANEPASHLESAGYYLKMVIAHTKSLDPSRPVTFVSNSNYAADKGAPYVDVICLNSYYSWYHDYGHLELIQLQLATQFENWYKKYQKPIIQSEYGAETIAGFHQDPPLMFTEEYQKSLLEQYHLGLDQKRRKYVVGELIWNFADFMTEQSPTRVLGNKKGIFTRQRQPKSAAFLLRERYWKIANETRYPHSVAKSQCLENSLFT
Experimental: as §1, §2

IC50 (HPSE (platelet); apparent IC50, in-gel competitive ABPP-based assay, platelet lysate, read-out: In vitro IC50 HPSE (platelet)): 900 ± 300 nM
inhibitor concentration down to which HPSE signal is abrogated (HPSE (platelet); platelet lysates, preincubation with inhibitor): 2.5 µM
fold more potent than reference inhibitors #98 (10) and OGT2115 (11) (HPSE [3]): approximately 2 fold
effect on GUS signals (GUSB): without altering GUS signals
SMILES: CC(=O)NC1C(O)[C@H](O)C(CO)O[C@@H]1O[C@H]1C(O)C(O)[C@@H]2OC2C1C(=O)O (stereo partly drawn) [Compound 2, 4-O-(2-N-acetyl-2-deoxy-D-glucopyranosyl)-glucurono-cyclophellitol]
HPSE inhibition (abrogation of labelling by ABP 7) (HPSE [1]): inhibited HPSE at nanomolar concentrations
incidence of lung metastases (4T1) [2]: marked reduction in the incidence of lung metastases
metastatic burden (CAG myeloma) (CAG human myeloma cells; 2: i.p. 300 nmol/day, bortezomib 0.5 mg/kg twice weekly, IVIS imaging): marked reduction in metastatic burden
efficacy at prolonged treatment (CAG myeloma) (CAG human myeloma cells; 33 day timepoint): lower efficacy following prolonged treatment
